Target: T1, Human Polymorphonuclear Leukocyte Elastase (Homo sapiens, UniProt P08246)
T1 construct: Crude extract of human polymorphonuclear leukocytes (PMN) containing elastase activity; from tissue; host or cells: human polymorphonuclear leukocytes (crude extract)
T1 sequence (P08246 30-267): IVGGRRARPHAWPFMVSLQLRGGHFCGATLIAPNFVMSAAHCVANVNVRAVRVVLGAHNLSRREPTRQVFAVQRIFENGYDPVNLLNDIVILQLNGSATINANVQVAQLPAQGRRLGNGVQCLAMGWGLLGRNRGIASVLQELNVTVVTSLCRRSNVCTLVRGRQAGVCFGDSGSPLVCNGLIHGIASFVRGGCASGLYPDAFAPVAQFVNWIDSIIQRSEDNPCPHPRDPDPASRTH
Experiment: Enzyme assay for inhibition of human polymorphonuclear leukocyte elastase via hydrolysis of Boc-AAPAN or Boc-AAPVN
Format: biochemical
Details: pH 7.5, second order rate constant for inactivation of the enzyme, expressed to the nearest thousand, read-out: Kobs/[I]
Summary of the method: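 Crude human PMN extract as enzyme source, with 0.2 mM Boc-AAPAN in 0.05M TES buffer pH 7.5. Inhibitors in DMSO were added to substrate before the extract, and rate was followed as ΔOD/min at 410 mµ. Values are kobs/I, the second-order inactivation rate constant (per mole per second).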

CCC[C@@H](NC(=O)N1C(=O)C(CC)(CC)[C@@H]1Oc1ccc(C(=O)N(C)CCN(C)C2=CCCCC2)cc1)c1ccc(C)cc1 [Compound 225] and CCC[C@@H](NC(=O)N1C(=O)C(CC)(CC)[C@@H]1Oc1ccc(C(=O)N(C)CCN(C)C2CCC(CC)CC2)cc1)c1ccc(C)cc1 (some centres unmarked) [Compound 232] are within 1.5-fold of each other in kinact/KI: 1.84e+06 M⁻¹ s⁻¹ for the first, 2.48e+06 M⁻¹ s⁻¹ for the second.

C=CC(C)(C)NCCN(C)C(=O)c1ccc(O[C@@H]2N(C(=O)N[C@H](CCC)c3ccc(C)cc3)C(=O)C2(CC)CC)cc1 [Compound 226] and C=CCN(CCN(C)C(=O)c1ccc(O[C@@H]2N(C(=O)N[C@H](CCC)c3ccc(C)cc3)C(=O)C2(CC)CC)cc1)C(C)(C)C=C [Compound 231] are within 1.5-fold of each other in kinact/KI: 1.31e+06 M⁻¹ s⁻¹ for the first, 925000 M⁻¹ s⁻¹ for the second.

First: CCC[C@@H](NC(=O)N1C(=O)C(CC)(CC)[C@@H]1Oc1ccc(C(=O)N2CCC[C@H]2C(N)=O)cc1)c1ccc(C)cc1 [Compound 227]
Second: CCC[C@@H](NC(=O)N1C(=O)C(CC)(CC)[C@@H]1Oc1ccc(C(=O)N2CCCCC2CO)cc1)c1ccc(C)cc1 (some centres unmarked) [Compound 228]
The kinact/KI of the first is 19-fold higher: 931000 M⁻¹ s⁻¹ for the first, 50000 M⁻¹ s⁻¹ for the second.

CCC[C@@H](NC(=O)N1C(=O)C(CC)(CC)[C@@H]1Oc1ccc(C(=O)N2CCC(N(C)C)C2)cc1)c1ccc(C)cc1 (some centres unmarked) [Compound 229] and CCC[C@@H](NC(=O)N1C(=O)C(CC)(CC)[C@@H]1Oc1ccc(C(=O)N2CCNCC2)cc1)c1ccc(C)cc1 [Compound 247, [S-(R*,S*)]-2-[4-[[(4-Piperazin-1-yl)carbonyl]phenoxy] -((3,3-diethyl-N-[1-(4-methylphenyl)butyl]-4-oxo-1-azetidinecarboxamide] are within 1.5-fold of each other in kinact/KI: 1.34e+06 M⁻¹ s⁻¹ for the first, 1.1e+06 M⁻¹ s⁻¹ for the second.

CCC[C@@H](NC(=O)N1C(=O)C(CC)(CC)[C@@H]1Oc1ccc(C(=O)N2CCN(c3ccc(F)cc3)CC2)cc1)c1ccc(C)cc1 [Compound 243] and CCC[C@@H](NC(=O)N1C(=O)C(CC)(CC)[C@@H]1Oc1ccc(C(=O)N2CCN(c3ccccc3)CC2)cc1)c1ccc(C)cc1 [Compound 245] are within 1.5-fold of each other in kinact/KI: 7.49e+06 M⁻¹ s⁻¹ for the first, 5.28e+06 M⁻¹ s⁻¹ for the second.

CCC[C@@H](NC(=O)N1C(=O)C(CC)(CC)[C@@H]1Oc1ccc(C(=O)N2CCN(c3cccc(Cl)c3)CC2)cc1)c1ccc(C)cc1 [Compound 244] and CCC[C@@H](NC(=O)N1C(=O)C(CC)(CC)[C@@H]1Oc1ccc(C(=O)N2CCN(c3ncccn3)CC2)cc1)c1ccc(C)cc1 [Compound 254] are within 1.5-fold of each other in kinact/KI: 2.45e+06 M⁻¹ s⁻¹ for the first, 2.14e+06 M⁻¹ s⁻¹ for the second.

Compared with CCC[C@@H](NC(=O)N1C(=O)C(CC)(CC)[C@@H]1Oc1ccc(C(=O)N2CCN(Cc3ccccc3)CC2)cc1)c1ccc(C)cc1 [Compound 246], CCC[C@@H](NC(=O)N1C(=O)C(CC)(CC)[C@@H]1Oc1ccc(C(=O)N2CCN(CC)CC2)cc1)c1ccc(C)cc1 [Compound 252] is 2.2-fold lower in kinact/KI: 5.17e+06 M⁻¹ s⁻¹ for the first, 2.32e+06 M⁻¹ s⁻¹ for the second.

CCC[C@@H](NC(=O)N1C(=O)C(CC)(CC)[C@@H]1Oc1ccc(C(=O)N2CCN(C(C)C)CC2)cc1)c1ccc(C)cc1 [Compound 248] and CCC[C@@H](NC(=O)N1C(=O)C(CC)(CC)[C@@H]1Oc1ccc(C(=O)N2CCN(CC(C)C)CC2)cc1)c1ccc(C)cc1 [Compound 249] are within 1.5-fold of each other in kinact/KI: 2.39e+06 M⁻¹ s⁻¹ for the first, 2.48e+06 M⁻¹ s⁻¹ for the second.

CCC[C@@H](NC(=O)N1C(=O)C(CC)(CC)[C@@H]1Oc1ccc(C(=O)N2CCN(CC(=O)OCC)CC2)cc1)c1ccc(C)cc1 [Compound 250] and CCC[C@@H](NC(=O)N1C(=O)C(CC)(CC)[C@@H]1Oc1ccc(C(=O)N2CCN(CC(=O)O)CC2)cc1)c1ccc(C)cc1 [Compound 251] are within 1.5-fold of each other in kinact/KI: 1.57e+06 M⁻¹ s⁻¹ for the first, 1.95e+06 M⁻¹ s⁻¹ for the second.

CCC[C@@H](NC(=O)N1C(=O)C(CC)(CC)[C@@H]1Oc1ccc(C(=O)N2CCN(CCC)CC2)cc1)c1ccc(C)cc1 [Compound 253] and CCC[C@@H](NC(=O)N1C(=O)C(CC)(CC)[C@@H]1Oc1ccc(C(=O)N2CCN(CCO)CC2)cc1)c1ccc(C)cc1 [Compound 256a, [S-(R*,S*)]-2-[4-[[(4-Hydroxyethyl)piperazin-1-yl]carbonyl]phenoxy]-((3,3-diethyl-N-[1-(methylphenyl)butyl]-4-oxo-1-azetidinecarboxamide] are within 1.5-fold of each other in kinact/KI: 1.77e+06 M⁻¹ s⁻¹ for the first, 2e+06 M⁻¹ s⁻¹ for the second.

Going from CCC[C@@H](NC(=O)N1C(=O)C(CC)(CC)[C@@H]1Oc1ccc(C(=O)N2CCN(CCOC(=O)NC)CC2)cc1)c1ccc(C)cc1 [Compound 255] to CCC[C@@H](NC(=O)N1C(=O)C(CC)(CC)[C@@H]1Oc1ccc(C(=O)N2CCN(CCO)CC2)cc1)c1ccc2c(c1)OCO2 [Compound 265c, [S-(R*,5*)]-2-[4-[[(4-Hydroxyethyl)piperazin-1-yl]carbonyl]phenoxy]-((3,3-diethyl-N-[1-(3,4-methylenedioxyphenyl)butyl]-4-oxo-1-azetidinecarboxamide], the kinact/KI rises from 2.55e+06 M⁻¹ s⁻¹ to 4.8e+06 M⁻¹ s⁻¹ (1.9-fold).

CCC[C@@H](NC(=O)N1C(=O)C(CC)(CC)[C@@H]1Oc1ccc(CC(N)=O)cc1)c1ccc2c(c1)OCO2 [Compound 257] and CCC[C@@H](NC(=O)N1C(=O)C(CC)(CC)[C@@H]1Oc1ccc(CC(=O)N2CCOCC2)cc1)c1ccc2c(c1)OCO2 [Compound 258] are within 1.5-fold of each other in kinact/KI: 2.34e+06 M⁻¹ s⁻¹ for the first, 1.78e+06 M⁻¹ s⁻¹ for the second.

CCC[C@@H](NC(=O)N1C(=O)C(CC)(CC)[C@@H]1Oc1ccc(CC(=O)N(C)CCN(C)C)cc1)c1ccc2c(c1)OCO2 [Compound 259] and CCC[C@@H](NC(=O)N1C(=O)C(CC)(CC)[C@@H]1Oc1ccc(C(=O)N(C)CCN(C)C)cc1)c1ccc2c(c1)OCO2 [Compound 260] are within 1.5-fold of each other in kinact/KI: 2.52e+06 M⁻¹ s⁻¹ for the first, 3.32e+06 M⁻¹ s⁻¹ for the second.

CCC[C@@H](NC(=O)N1C(=O)C(CC)(CC)[C@@H]1Oc1ccc(C(=O)N(CC)CC)cc1)c1ccc2c(c1)OCO2 [Compound 261] and CCCCN(C)C(=O)c1ccc(O[C@@H]2N(C(=O)N[C@H](CCC)c3ccc4c(c3)OCO4)C(=O)C2(CC)CC)cc1 [Compound 262] are within 1.5-fold of each other in kinact/KI: 3.21e+06 M⁻¹ s⁻¹ for the first, 3.12e+06 M⁻¹ s⁻¹ for the second.

CCC[C@@H](NC(=O)N1C(=O)C(CC)(CC)[C@@H]1Oc1ccc(C(=O)N2CCN(C)CC2)cc1)c1ccc2c(c1)OCO2 [Compound 263, [S-(R*,S*)]-2-[4-[[(4-Methyl)piperazin-1-yl]carbonyl]phenoxy]-((3,3-diethyl-N-[1-(3,4-methylenedioxyphenyl)butyl]-4-oxo-1-azetidinecarboxamide] and CCC[C@@H](NC(=O)N1C(=O)C(CC)(CC)[C@@H]1Oc1ccc(C(=O)N2CCN(C3CC3)CC2)cc1)c1ccc2c(c1)OCO2 [Compound 265, [S-(R*,S*)]-2-[4-[[(4-Cyclopropyl)piperazin-1-yl]carbonyl]phenoxy]-((3,3-diethyl-N-[1-(3,4-methylenedioxyphenyl)butyl]-4-oxo-1-azetidinecarboxamide] are within 1.5-fold of each other in kinact/KI: 3.8e+06 M⁻¹ s⁻¹ for the first, 4.5e+06 M⁻¹ s⁻¹ for the second.

Compared with CCC[C@@H](NC(=O)N1C(=O)C(CC)(CC)[C@@H]1Oc1ccc(C(=O)N(C)CCN(C)Cc2ccccc2)cc1)c1ccc2c(c1)OCO2 [Compound 264], CCC[C@@H](NC(=O)N1C(=O)C(CC)(CC)[C@@H]1Oc1ccc(C(=O)N(C)CCN(C)C)cc1)c1ccc(C(=O)N2CCOCC2)cc1 [Compound 277] is 6.3-fold lower in kinact/KI: 3.43e+06 M⁻¹ s⁻¹ for the first, 548000 M⁻¹ s⁻¹ for the second.

CCC[C@@H](NC(=O)N1C(=O)C(CC)(CC)[C@@H]1Oc1ccc(C(=O)N2CCNCC2)cc1)c1ccc2c(c1)OCO2 [Compound 265a, [S-(R*,S*)]-2-[4-[[(4-Piperazin-1-yl)carbonyl]phenoxy] -((3,3-diethyl-N-[1-(3,4-methylenedioxyphenyl)butyl]-4-oxo-1-azetidinecarboxamide] and CCC[C@@H](NC(=O)N1C(=O)C(CC)(CC)[C@@H]1Oc1ccc(C(=O)N2CCOCC2)cc1)c1ccc2c(c1)OCO2 [Compound 265d] are within 1.5-fold of each other in kinact/KI: 3.25e+06 M⁻¹ s⁻¹ for the first, 3.7e+06 M⁻¹ s⁻¹ for the second.

Compared with CCC[C@@H](NC(=O)N1C(=O)C(CC)(CC)[C@@H]1Oc1ccc(CC(=O)N2CCOCC2)cc1)c1cccc(C(=O)N2CCOCC2)c1 [Compound 266], CCC[C@@H](NC(=O)N1C(=O)C(CC)(CC)[C@@H]1Oc1ccc(CC(=O)N(CC)CC)cc1)c1cccc(C(=O)N2CCOCC2)c1 [Compound 267] is 2-fold higher in kinact/KI: 169000 M⁻¹ s⁻¹ for the first, 334000 M⁻¹ s⁻¹ for the second.

First: CCC[C@@H](NC(=O)N1C(=O)C(CC)(CC)[C@@H]1Oc1ccc(CC(=O)N(C)CCN(C)C)cc1)c1cccc(C(=O)N2CCOCC2)c1 [Compound 268]
Second: CCC[C@@H](NC(=O)N1C(=O)C(CC)(CC)[C@@H]1Oc1ccc(CC(=O)N(C)CCN(C)C)cc1)c1ccc(C(=O)N2CCOCC2)cc1 [Compound 275]
The kinact/KI of the first is 2-fold lower: 142000 M⁻¹ s⁻¹ for the first, 290000 M⁻¹ s⁻¹ for the second.

CCC[C@@H](NC(=O)N1C(=O)C(CC)(CC)[C@@H]1Oc1ccc(CC(N)=O)cc1)c1ccc(C)c(C(=O)N2CCOCC2)c1 [Compound 269] and CCC[C@@H](NC(=O)N1C(=O)C(CC)(CC)[C@@H]1Oc1ccc(CC(=O)N(CC)CC)cc1)c1ccc(C)c(C(=O)N2CCOCC2)c1 [Compound 270] are within 1.5-fold of each other in kinact/KI: 637000 M⁻¹ s⁻¹ for the first, 740000 M⁻¹ s⁻¹ for the second.

Compared with CCC[C@@H](NC(=O)N1C(=O)C(CC)(CC)[C@@H]1Oc1ccc(CC(=O)N(CCC)CCC)cc1)c1ccc(C)c(C(=O)N2CCOCC2)c1 [Compound 271], CCCCN(C)C(=O)c1ccc(O[C@@H]2N(C(=O)N[C@H](CCC)c3ccc(CC)c(C(=O)N4CCOCC4)c3)C(=O)C2(CC)CC)cc1 [Compound 273] is 3.9-fold higher in kinact/KI: 826000 M⁻¹ s⁻¹ for the first, 3.26e+06 M⁻¹ s⁻¹ for the second.

Going from CCC[C@@H](NC(=O)N1C(=O)C(CC)(CC)[C@@H]1Oc1ccc(C(=O)N(C)CCN(C)C)cc1)c1ccc(CC)c(C(=O)N2CCOCC2)c1 [Compound 272] to CCC[C@@H](NC(=O)N1C(=O)C(CC)(CC)[C@@H]1Oc1ccc(C(=O)N(CC)CC)cc1)c1ccc(C(=O)N2CCOCC2)cc1 [Compound 279], the kinact/KI falls from 2.42e+06 M⁻¹ s⁻¹ to 566000 M⁻¹ s⁻¹ (4.3-fold).

CCC[C@@H](NC(=O)N1C(=O)C(CC)(CC)[C@@H]1Oc1ccc(CC(N)=O)cc1)c1ccc(C(=O)N2CCOCC2)cc1 [Compound 274] and CCC[C@@H](NC(=O)N1C(=O)C(CC)(CC)[C@@H]1Oc1ccc(CC(=O)OC)cc1)c1ccc(C(=O)N2CCOCC2)cc1 [Compound 276] are within 1.5-fold of each other in kinact/KI: 430000 M⁻¹ s⁻¹ for the first, 440000 M⁻¹ s⁻¹ for the second.

Work on CCC[C@@H](NC(=O)N1C(=O)C(CC)(CC)[C@@H]1Oc1ccc(C(=O)OCCN(C)C)cc1)c1ccc(C(=O)N2CCOCC2)cc1 [Compound 278] yielded a kinact/KI of 135000 M⁻¹ s⁻¹.
